Measurements as given in PMC11385697, “Bibacillin 1: a two-component lantibiotic from Bacillus thuringiensis” (RSC Chemical Biology, 2024).

Tests used:
[1] = tested on: rabbit erythrocytes; assay: Agar diffusion hemolysis assay; assay type: cell-based; conditions: 300 pmol peptide spotted (3 μL of 100 μM in PBS); 5% (v/v) rabbit erythrocytes in 0.7% BHI agar; 37 °C, 16 h; mixtures 1 : 1
Procedure: Cytolysin was used as a positive control.
Defibrinated rabbit erythrocytes (Hemostat) were washed by 5-fold dilution in cold sterile PBS, followed by centrifugation at 1000g for 10 min and decanting. This process was repeated until the supernatant was clear. The washed erythrocytes were diluted to a concentration of 5% (v/v) in molten BHI containing 0.7% agar cooled to 50 °C and the mixture was immediately deposited onto a warm 2% BHI agar plate. After setting at room temperature for at least 30 min, 3 μL of peptide solution diluted in PBS to a concentration of 100 μM was deposited onto the agar plate and the plate was allowed to stand for another 30 min. The plate was then incubated at 37 °C for 16 h before documentation.

[2] = tested on: rabbit erythrocytes; assay type: cell-based; conditions: total peptide concentration 2 μM; 1 h at 37 °C; mixture 1 : 1
Procedure: Solution phase hemolysis assays were conducted as described previously.[36]
Fig. S2. […] A) Hemoglobin release […]
erythrocytes were treated with 0.03% v/v triton X-100. Negative control contained only buffer. A total peptide concentration of 2 µM was used in each case. B) Extent of hemolysis after treating freshly washed rabbit erythrocytes with 1:1 of CylLS”:CylLL” at 37 ̊C for 1 h. Data was fit to a […]
(1 picture or pasted object on this page, not shown here)

[3] = tested on: M. luteus ATCC 4698; assay: Time-kill assay; assay type: cell-based, Micrococcus luteus; conditions: total peptide 20 μM, 30 °C; for killing activity in time-kill assay: mixture 1 : 1
Procedure: The solutions were incubated at 30 °C with shaking. At each time point, 20 μL was removed from each culture and immediately streaked onto tryptic soy broth agar plates. The plates were incubated at 30 °C for 36–48 h and colonies were counted.

[4] = tested on: T1, lipid II consumption by E. coli PBP1b; assay: In vitro peptidoglycan synthesis assay with lipid II substrate (TLC); assay type: biochemical; conditions: 4 equivalents of peptide relative to lipid II; 30 °C, 2 h; thin layer chromatography; mixture 1 : 1
T1 construct: made in house
Procedure: A solution of lipid II (1.5 nmol) in 1 : 1 CHCl3 : MeOH that was prepared by a previously disclosed procedure[87] was added to a low binding Eppendorf tube and concentrated to remove any organic solvent. Triton X-100 (1% v/v, 2 μL) was added to the residue and the mixture was sonicated briefly before diluting with 37.5 μL of reaction buffer (20 mM MES, 2 mM MgCl2, 2 mM CaCl2, pH = 5.5). The solution was then transferred to a new low binding Eppendorf tube containing lanthipeptide. The mixture was vortexed and briefly sonicated to ensure dissolution. The mixtures were incubated for 10 min at room temperature before adding PBP1b (6 μg), which was prepared as described elsewhere,[77] and then incubated at 30 °C. After 2 h, 150 μL nBuOH : AcOH-pyridine (2 : 1) was added to the reaction mixture and the organic layer was removed, washed with 40 μL of water and then concentrated. The residue was dissolved in 12 μL of 1 : 1 MeOH : CHCl3 and 3 μL was deposited onto a silica gel plate. The TLC plate was developed in mobile phase (88 : 48 : 10 : 1 CHCl3 : MeOH : H2O : NH4OH) for 10 min before drying and staining the plate with cerium ammonium sulfate. The plate was documented immediately after the staining procedure was completed.

[5] = In vitro pore formation assay, pyranine-encapsulated liposomes; conditions: total peptide 5 μM; for pore formation activity in liposomes: pH-dependent pyranine fluorescence, DOPC liposomes
Procedure: To investigate the lipid II-dependence of the pore formation activity of bibacillin 1, pyranine-encapsulated liposomes were prepared containing or lacking lipid II and pore formation was monitored via pH-dependent pyranine fluorescence.[79]
This assay was conducted as described elsewhere.[79]

[6] = Dynamic light scattering of aggregates; assay type: physicochemical; conditions: phosphate buffered saline pH = 7.4, room temperature, total peptide 1 μM; for average diameter of aggregates (DLS): SDS-free
Procedure: Fig. 6 Exploring the quorum sensing mechanism of bibacillin 1. (A) Assays to assess whether bibacillin 1 triggers the CylR1/R2 system. A reporter strain of E. faecalis with LacZ expression under the control of the CylR1/R2 system was seeded into soft agar containing X-gal. Next, 300 pmol of Bib1α, Bib1β, and Bib1βDha either separately or as 1 : 1 mixtures were deposited onto the soft agar layer. Nisin (300 pmol) and CylLS′′ (30 pmol) were used as negative and positive controls, respectively. (B) Size distributions obtained using dynamic light scattering showing the oligomeric states of Bib1α, Bib1β, and Bib1α : Bib1β (1 : 1) in phosphate buffered saline (pH = 7.4) at room temperature. In each case, the total peptide concentration was 1 μM.
Enzyme mixtures used for molecular biology were purchased from New England BioLabs (NEB) (Ipswich, MA). Chemicals were purchased from Sigma-Aldrich (St. Louis, MO). Growth media were purchased from Becton, Dickinson and Company (Franklin Lake, NJ) or Fisher Scientific (Pittsburgh, PA). Single stranded DNA used as primers for PCR were purchased from Integrated DNA Technologies (Newark, NJ). Gene fragments were purchased from Twist Bioscience (San Francisco, CA). The sequences of primers and gene fragments can be found in Tables S2 and S3 (ESI ^†), respectively. Whole plasmid sequencing was performed by Plasmidsaurus using Oxford Nanopore Technology with custom analysis and annotation. Matrix-assisted laser desorption/ionization time-of-flight mass spectrometry (MALDI-TOF MS) analysis was performed on a Bruker UltrafleXtreme MALDI-TOF mass spectrometer (Bruker Daltonics) at the University of Illinois School of Chemical Sciences Mass Spectrometry. All samples analyzed by MALDI-TOF MS were co-crystallized with Super DHB MALDI matrix purchased from Sigma-Aldrich. Semi-preparative reversed phase HPLC (R-HPLC) was performed on an Agilent 1260 infinity II LC system. Fluorescence emission intensities and optical densities were determined using a Biotek Synergy H4. Dynamic light scattering (DLS) analysis was performed on a Zetasizer Nanoseries (Malvern Panalytical,). CylLS′′ and CylLL′′ were prepared using a previously described procedure.[36] Nisin was isolated from commercially available crude extracts of Lactococcus lactis (Sigma Aldrich).

[7] = SDS-PAGE analysis of oligomerization; assay type: physicochemical; conditions: in the presence of SDS
Procedure: To determine whether bibacillin 1 could quorum sense through an aggregation mechanism, the aggregation propensity of bibacillin 1 was analyzed using SDS-PAGE and dynamic light scattering (DLS). […] Since SDS can influence aggregation, the aggregation of bibacillin 1 was further investigated under SDS-free conditions using DLS (Fig. 6B). Bib1α exists in solution as aggregates that are 159 nm in diameter on average (PDI = 0.224) and Bib1β forms aggregates that are 291 nm in diameter on average (PDI = 0.384). […] Confirmation of this hypothesis will require in vitro studies with Bib1R1/R2.

[8] = tested on: M. luteus ATCC 4698; assay: Membrane depolarization assay, DiSC3(5); conditions: DiSC3(5) fluorescence; M. luteus OD600 = 0.2; 30 min; peptides individually
Procedure: (B) DiSC3(5) fluorescence signal after incubation of M. luteus (OD600 = 0.2) with Bib1α or Bib1β individually or as a 1 : 1 mixture for 30 min. […] In all cases, a total peptide concentration of 5 μM was used.
The mixture was transferred to a 96-well black plate and the fluorescence of DiSC3(5) was measured using an excitation wavelength of 622 nm and an emission wavelength of 670 nm throughout the experiment. The fluorescence signal was measured for 8 min prior to the addition of peptides. After adding peptides, the fluorescence signal was monitored for 30 min. The maximum fluorescence signal achieved over the entire course of the experiment was considered to be a metric of membrane depolarization activity and was plotted as a function of peptide concentration.

Compound | hemolytic activity on an agar plate [1] | hemolysis in solution (hemoglobin release, absorbance at 415 nm) [2] | time after which cells began to recover from treatment [3] | killing activity in time-kill assay ([3]; about 10^6 CFU per mL) | protection of lipid II from consumption by PBP1b [4] | lipid II dependence of pore formation activity ([5]; DOPC liposomes containing or lacking 0.1 mol% lipid II) | pore formation activity in liposomes [5] | PDI of aggregates (DLS) [6] | average diameter of aggregates (DLS) [6] | oligomerization by SDS-PAGE [7] | membrane depolarization activity, all concentrations tested [8] | time after treatment at which minimal cell counts were reached ([3]; about 10^6 CFU per mL) | size distribution of aggregates (DLS) [6]
C=C(NC(=O)[C@H](C)NC(=O)[C@@H]1CS[C@H](C)[C@H](N)C(=O)NC(=C)C(=O)N2CCC[C@H]2C(=O)N[C@@H](C)C(=O)N1)C(=O)N[C@@H](C)C(=O)N[C@@H](CCSC)C(=O)N[C@@H](CC(C)C)C(=O)N[C@@H](Cc1ccc(O)cc1)C(=O)N[C@@H](CC(C)C)C(=O)N[C@@H](CCC(N)=O)C(=O)NCC(=O)N[C@H](C(=O)NC(=CC)C(=O)N[C@H](C(=O)NC(=C)C(=O)N[C@@H](CC(C)C)C(=O)NCC(=O)N[C@@H](CC(C)C)C(=O)N[C@@H]1CSC[C@@H](C(=O)O)NC(=O)[C@H](Cc2c[nH]cn2)NC(=O)[C@H](CCSC)NC(=O)[C@H](CCCNC(=N)N)NC1=O)C(C)C)C(C)C [Bib1α] | showed hemolytic activity | did not induce hemolysis | 4 h | bactericidal | incapable of protecting lipid II | somewhat enhanced by the addition of lipid II | showed pore formation activity | 0.224 | 159 nm | oligomeric in the presence of SDS | did not show strong membrane depolarization activity | – | –
C=C(NC(=O)[C@H](Cc1ccccc1)NC(=O)CNC(=O)[C@H](CC(C)C)NC(=O)[C@H](C)NC(=O)[C@H](CC(C)C)NC(=O)CNC(=O)CNC(=O)CNC(=O)[C@@H](NC(=O)[C@H](C)NC(=O)[C@@H]1CS[C@H](C)[C@H](N)C(=O)NC(=CC)C(=O)N2CCC[C@H]2C(=O)N[C@@H](C(C)C)C(=O)N1)[C@@H](C)CC)C(=O)N[C@H](C(=O)N[C@@H]1CSC[C@@H](C(=O)O)NC(=O)[C@H](Cc2ccc(O)cc2)NC(=O)[C@H]([C@@H](C)CC)NC(=O)[C@H](CCCCN)NC1=O)[C@@H](C)CC [Bib1βDha] | did not show any hemolytic activity beyond that of a negative control | – | – | – | – | – | – | – | – | – | – | – | –
CC=C1NC(=O)[C@@H](N)[C@@H](C)SC[C@@H](C(=O)N[C@@H](C)C(=O)N[C@H](C(=O)NCC(=O)NCC(=O)NCC(=O)N[C@@H](CC(C)C)C(=O)N[C@@H](C)C(=O)N[C@@H](CC(C)C)C(=O)NCC(=O)N[C@@H](Cc2ccccc2)C(=O)N[C@@H](CO)C(=O)N[C@H](C(=O)N[C@@H]2CSC[C@@H](C(=O)O)NC(=O)[C@H](Cc3ccc(O)cc3)NC(=O)[C@H]([C@@H](C)CC)NC(=O)[C@H](CCCCN)NC2=O)[C@@H](C)CC)[C@@H](C)CC)NC(=O)[C@H](C(C)C)NC(=O)[C@@H]2CCCN2C1=O [Bib1β] | showed hemolytic activity | did not induce hemolysis | – | bactericidal | incapable of protecting lipid II | – | did not show pore formation activity | 0.384 | 291 nm | oligomeric in the presence of SDS | did not show strong membrane depolarization activity | 8 h | bimodal
